From US20250064890A1, “PROTEIN COMPOSITIONS FOR THE TREATMENT OF INFLAMMATORY DISEASES” (Unichem Laboratories Limited, priority 2021, published 2025)
Like-named read-outs stand apart in the source and are kept apart here.

Legend:
Format in all cases: cell-based, human
[1] = tested on: VEGF; experiment: Multiplex analysis, chemotherapy (5-FU), TR146
Method: (§1) Oral buccal mucosal cells (TR146) cells were incubated overnight at 37° C. in 5% CO2 incubator. […] The cells were then stimulated with 5-FU (10 mM) for another 24h for chemotherapy and with gamma radiation (3.5 kGy) using Cobalt 60 for radiotherapy. After 24 h, cell culture supernatants were collected from each well and stored at −20° C. till multiplex analysis. For NF-kB estimations, cell lysates were prepared. Levels of biomarkers were estimated using Magpix® multiplex machine. The cells treated with Amifostine (along with 5-FU or radiation) were considered as positive control (PC). Untreated cells (5-FU or radiation alone treated) were used as negative control (NC).
(§2) The percent modulation in each sample was determined as follows:
(§3) [{Concentration of biomarkers (pg/ml) in Control cells (5-FU or radiation alone treated)−Concentration of biomarkers (pg/ml) in SEQ ID NO: 2+5-FU or radiation treated cells)}/Concentration of biomarkers (pg/ml) in Control cells (5-FU or radiation alone treated)]*100

[2] = tested on: IL-6; experiment: Multiplex analysis, chemotherapy (5-FU), TR146
Method: as §1, §2, §3

[3] = tested on: MMP-3; experiment: Multiplex analysis, chemotherapy (5-FU), TR146
Method: as §1, §2, §3

[4] = tested on: IL-1β; experiment: Multiplex analysis, chemotherapy (5-FU), TR146
Method: as §1, §2, §3

[5] = tested on: TNF-α; experiment: Multiplex analysis, chemotherapy (5-FU), TR146
Method: as §1, §2, §3

[6] = tested on: IL-12/IL-23p40; experiment: Multiplex analysis, chemotherapy (5-FU), TR146
Method: as §1, §2, §3

[7] = tested on: oral (buccal) mucosa cells (TR146); experiment: Restoration of mitochondrial membrane potential (JC-1) against 5-FU induced damage; details: for MMP: mitochondrial membrane potential, red/green JC-1 fluorescence ratio
Method: (§4) Oral buccal mucosal cells (TR146) were incubated overnight in 5% CO2 incubator at 37° C. for 24 h. […] After 24 h of treatment, cells were exposed to damage (5-FU 5 mM) for 1.25 h for chemotherapy induced inflammation and exposed to gamma radiation (3.5 kGy) using Cobalt 60 for radiation induced inflammation. After the exposure, the anti-apoptotic effect of SEQ ID NO 2 was determined by restoration of mitochondrial membrane depolarization by JC-1 staining and reduction in apoptotic cell populations (Annexin positive and subG0/G1 cells in cell cycle analysis).
(§5) After incubation, the supernatants were discarded and 100 μl of JC1-dye solution (prepared by diluting 1 mM DMSO stock into 10 μM in 1×PBS) was added to each well. The cells were then incubated with the dye in CO2 incubator at 37° C. for 15 min, after which the supernatant was removed, and the cells were washed twice with 1×PBS. 100 μl of 1×PBS was finally added to each well. Red fluorescence (excitation 550 nm, emission 600 nm) and green fluorescence (excitation 485 nm, emission 535 nm) were measured using Biotek Synergy HT plate reader. The mitochondrial membrane potential (Δψm) was calculated as the ratio of intensity of red fluorescence to intensity of green fluorescence.
(§6) The percentage increase/restoration in mitochondrial membrane potential (MMP) was calculated as: % Increase=[(R−X)/R]*100 • Where, X=Δψm corresponding to TI+5-FU treated cells or TI+radiation treated cells; R=Δψm corresponding to control cells (FU damaged or Radiation damaged alone)

[8] = tested on: oral (buccal) mucosa cells (TR146)
Method: The protective effect of the recombinant lectin on survival of TR146 cells against 5-FU induced damage was determined using following calculations:
The viability of cells was determined as: % Cell viability=(100−% Cytotoxicity); • where, the percentage cytotoxicity corresponding to each treatment was calculated as: % Cytotoxicity=[(R−X)/R]*100, wherein X=Absorbance of cells treated with 5-FU or radiation damage/TI+5-FU, R=Absorbance of Control cells (Untreated) and Percentage protection was calculated as:
{(Absorbance of TI+5-FU or radiation)−(Absorbance of 5-FU or radiation alone)/(Absorbance of Untreated)−(Absorbance of 5-FU alone)}*100

[9] = tested on: oral (buccal) mucosa cells (TR146); experiment: Annexin positive cell population against radiation damage; details: for % Apoptotic cells: Annexin positive
Method: as §4
To determine the reduction in apoptotic cell populations using annexin-v staining cells were gently harvested into pre-labeled sterile centrifuge tubes and centrifuged at 300×g for 5-7 min. Supernatant were discarded and the pellet was resuspended in 200 μl of fresh culture medium. 100 μl of cell suspension was transferred into pre-labeled sterile centrifuge tubes. 100 μl of Annexin-V reagent was added to each tube and incubated for 30 min at RT in dark. Cells stained for Annexin-V were then transferred into 96-well plates and acquired on flow cytometer (Guava technologies). Percentage of Annexin-V positive cells was calculated as follows:
={[% Annexin positive cells in 5-FU or radiation alone]−[% Annexin positive cells in (TI+5-FU) or (TI+radiation)]/% Annexin positive cells in 5-FU or radiation alone}*100

[10] = tested on: NF-kB; experiment: Multiplex analysis, chemotherapy (5-FU), TR146 cell lysates
Method: as §1, §2, §3

[11] = tested on: oral (buccal) mucosa cells (TR146); experiment: Restoration of mitochondrial membrane potential (JC-1) against radiation induced damage; details: for MMP: red/green JC-1 fluorescence ratio
Method: as §4, §5, §6

[12] = tested on: NF-kB; experiment: Multiplex analysis, radiotherapy, TR146 cell lysates
Method: as §1, §2, §3

[13] = 0.1 μg/ml + Radiation (3.5 kGy)

NCCCNCCSP(=O)(O)O [Amifostine, reference compound]
Percentage Inhibition VGEF ([1]; 1 μg/ml + 5-FU (10 mM)): 27.9%
Percentage Inhibition VGEF ([1]; 10 μg/ml + 5-FU (10 mM)): 35.4%
Percentage Inhibition VGEF ([1]; 50 μg/ml + 5-FU (10 mM)): 39.6%
Percentage Inhibition IL-6 ([2]; 1 μg/ml + 5-FU (10 mM)): 7.2%
Percentage Inhibition IL-6 ([2]; 10 μg/ml + 5-FU (10 mM)): 8.9%
Percentage Inhibition IL-6 ([2]; 50 μg/ml + 5-FU (10 mM)): 35.2%
Percentage Inhibition MMP-3 ([3]; 1 μg/ml + 5-FU (10 mM)): 22.6%
Percentage Inhibition MMP-3 ([3]; 10 μg/ml + 5-FU (10 mM)): 23.4%
Percentage Inhibition MMP-3 ([3]; 50 μg/ml + 5-FU (10 mM)): 26.8%
Percentage Inhibition IL-1β ([4]; 1 μg/ml + 5-FU (10 mM)): 14.2%
Percentage Inhibition IL-1β ([4]; 10 μg/ml + 5-FU (10 mM)): 19.5%
Percentage Inhibition IL-1β ([4]; 50 μg/ml + 5-FU (10 mM)): 46.6%
Percentage Inhibition TNF-α ([5]; 1 μg/ml + 5-FU (10 mM)): 10%
Percentage Inhibition TNF-α ([5]; 10 μg/ml + 5-FU (10 mM)): 13.3%
Percentage Inhibition TNF-α ([5]; 50 μg/ml + 5-FU (10 mM)): 10%
Percentage Inhibition IL-12/IL-23p40 ([6]; 1 μg/ml + 5-FU (10 mM)): 0%
Percentage Inhibition IL-12/IL-23p40 ([6]; 10 μg/ml + 5-FU (10 mM)): −2.1%
Percentage Inhibition IL-12/IL-23p40 ([6]; 50 μg/ml + 5-FU (10 mM)): 13.4%
% Increase in MMP (with respect to control) ([7]; 1 μg/ml + 5FU): 68.7%
MMP ([7]; 1 μg/ml + 5FU): 14.3
% Increase in MMP (with respect to control) ([7]; 5 μg/ml + 5FU): 64.9%
MMP ([7]; 5 μg/ml + 5FU): 14
% Increase in MMP (with respect to control) ([7]; 10 μg/ml + 5FU): 85.3%
MMP ([7]; 10 μg/ml + 5FU): 15.7
% Increase in MMP (with respect to control) ([7]; 25 μg/ml + 5FU): 90%
MMP ([7]; 25 μg/ml + 5FU): 16.1
% Increase in MMP (with respect to control) ([7]; 50 μg/ml + 5FU): 105.2%
MMP ([7]; 50 μg/ml + 5FU): 17.4
% Protection ([8]; 1 μg/ml + Radiation (3.5 kGy)): 7.7%
% Protection ([8]; 5 μg/ml + Radiation (3.5 kGy)): 22.2%
% Protection ([8]; 10 μg/ml + Radiation (3.5 kGy)): 43.1%
% Protection ([8]; 25 μg/ml + Radiation (3.5 kGy)): 12%
% Decrease in Apoptotic cells (with respect to radiation control) [9, 13]: 47.3%
% Apoptotic cells [9, 13]: 7.2%
% Decrease in Apoptotic cells (with respect to radiation control) ([9]; 1 μg/ml + Radiation (3.5 kGy)): 32.6%
% Apoptotic cells ([9]; 1 μg/ml + Radiation (3.5 kGy)): 9.2%
% Decrease in Apoptotic cells (with respect to radiation control) ([9]; 10 μg/ml + Radiation (3.5 kGy)): 63%
% Apoptotic cells ([9]; 10 μg/ml + Radiation (3.5 kGy)): 5.1%
Percentage Inhibition NF-kB ([10]; 1 μg/ml + 5-FU (10 mM)): 100%
Percentage Inhibition NF-kB ([10]; 10 μg/ml + 5-FU (10 mM)): 48.2%
Percentage Inhibition NF-kB ([10]; 50 μg/ml + 5-FU (10 mM)): 14.2%
% Increase in MMP (with respect to control) [11, 13]: 28.2%
MMP [11, 13]: 5.90
% Increase in MMP (with respect to control) ([11]; 1 μg/ml + Radiation (3.5 kGy)): 39.7%
MMP ([11]; 1 μg/ml + Radiation (3.5 kGy)): 6.43
% Increase in MMP (with respect to control) ([11]; 10 μg/ml + Radiation (3.5 kGy)): 35.2%
MMP ([11]; 10 μg/ml + Radiation (3.5 kGy)): 6.23
Percentage Inhibition NF-kB [12, 13]: 15.8%
Percentage Inhibition NF-kB ([12]; 10 μg/ml + Radiation (3.5 kGy)): 17.7%
